{"source": "patent US20070065443A1", "about": "“Fructoseamine 3 kinase and the formation of collagen and elastin” (priority 2004, published 2007)", "key": {"3DG": {"system": "3DG", "experiment": "Plasma 3DG levels in diabetic and non-diabetic rats treated with 3-O-methyl sorbitollysine", "assay_type": "in vivo, rat", "details": "for plasma 3DG level: 50 mg/kg body weight injections, within one week", "method": "A cohort of twelve diabetic rats was divided into two groups of six. The first group received saline-only injections, and the second received injections of 3-O-methyl sorbitollysine (50 mg/kg body weight) in saline solution. The same procedure was conducted on a cohort of twelve non-diabetic rats."}, "[1]": {"experiment": "Locus of 3-O-methyl sorbitollysine uptake in vivo (tissue, urine, plasma)", "set-up": "species or system rat", "method": "[…] Urine was collected for 3 hours, after which the rats were sacrificed. The tissues to be analyzed were removed and freeze clamped in liquid nitrogen. Perchloric acid extracts of the tissues were used for metabolite analysis. The tissues examined were taken from the brain, heart, muscle, sciatic nerve, spleen, pancreas, liver, and kidney. Plasma was also analyzed."}, "STZ-diabetic rats": {"system": "STZ-diabetic rats", "experiment": "Skin elasticity measurement (vacuum pull to displace skin)", "assay_type": "in vivo, rat", "details": "50 mg/kg daily s.c. for eight weeks", "method": "Experiments were performed to determine the effects of DYN 12 on the loss of skin elasticity associated with diabetes. To this end, two groups of STZ-diabetic rats and two groups of normal rats were subjected to treatment with DYN 12 or saline. One 'group of STZ-diabetic rats (n=9) received daily subcutaneous injections of DYN 12 at 50 mg/kg for eight weeks, as did one group of normal rats (n=6). A group of control diabetic rats (n=10) and a group of normal rats (n=6) received saline instead of DYN 12. One rat was removed from the diabetic DYN 12 group after 2 weeks because its blood glucose readings were inconsistent (too low) with other diabetic rats.\nA non-invasive procedure based on CyberDERM, Inc. technology utilizing a skin elasticity measurement device was used to test the effects of DYN 12 treatment on skin elasticity. The procedure provides for non-invasive measurement of skin elasticity based upon the amount of vacuum pull required to displace skin. A suction cup probe is adhered to an area of shaved skin in order to form an airtight seal. Then, a vacuum is applied to the area of the skin inside the suction cup until the skin is displaced past a sensor located inside the probe. Accordingly, the more pressure that is required to displace the skin, the less elastic the skin is."}, "[2]": {"experiment": "Distribution of DYN-12 in plasma, urine and kidney", "assay_type": "in vivo, rat", "details": "individual rats, 100 micromols i.p.", "method": "Rats were injected intraperitoneally with 1 ml of a 100 mM solution of DYN-12 (100 micromols). Urine was collected for 1 hr, and DYN-12 levels measured. After 1 hr the animals were sacrificed and DYN-12 levels measured in both plasma and kidney tissue."}, "fructoseamine kinase": {"target": "T1, fructoseamine kinase (Homo sapiens, UniProt Q9H479)", "T1 sequence (Q9H479 1-309)": "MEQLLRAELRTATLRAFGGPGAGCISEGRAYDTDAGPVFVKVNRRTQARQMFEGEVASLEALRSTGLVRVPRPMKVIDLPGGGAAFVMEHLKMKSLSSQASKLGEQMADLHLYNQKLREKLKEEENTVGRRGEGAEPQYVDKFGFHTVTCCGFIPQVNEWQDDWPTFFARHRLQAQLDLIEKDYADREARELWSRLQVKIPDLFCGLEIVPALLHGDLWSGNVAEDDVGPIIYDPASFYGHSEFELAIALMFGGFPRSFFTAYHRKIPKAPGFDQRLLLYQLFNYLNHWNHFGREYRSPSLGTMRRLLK", "experiment": "Fructoseamine kinase inhibition (Ki)", "assay_type": "biochemical"}}, "note": "Several values for one entry are separate records, joined by “and”; a condition that tells them apart may be missing. Identical values can stand only once.", "data": [{"smiles": "COC(C(O)CNCCCCC(N)C(=O)O)C(O)C(O)CO", "note": "(stereo not drawn) [DYN 12, 3-O-methylsorbitollysine]", "values": [{"measurement": "% Reduction of plasma 3DG vs saline only", "setting": "3DG; diabetic rats", "value": 53, "unit": "%"}, {"measurement": "plasma 3DG level", "setting": "3DG; diabetic rats", "value": "0.44 ± 0.10", "unit": "µM"}, {"measurement": "% Reduction of plasma 3DG vs saline only", "setting": "3DG; non-diabetic rats", "value": 43, "unit": "%"}, {"measurement": "plasma 3DG level", "setting": "3DG; non-diabetic rats", "value": "0.13 ± 0.02", "unit": "µM"}, {"measurement": "presence of the compound in plasma", "setting": "[1]; 3 hours after i.p. injection", "value": "plasma did not"}, {"measurement": "tissue extracts containing the compound", "setting": "[1]; brain, heart, muscle, sciatic nerve, spleen, pancreas, liver, kidney examined, 3 hours", "value": "only tissue extract found to contain 3-O-methyl sorbitollysine was that of the kidney"}, {"measurement": "nmols 3OMeSL in kidneys", "setting": "[1]; individual rats, 13500 nmols i.p., 3 hours, listed as 3OMeSL", "value": "8155 nmols and 3880 nmols and 10071 nmols and 6582 nmols and 5373 nmols and 4833 nmols"}, {"measurement": "nmols 3OmeSL in urine", "setting": "[1]; individual rats, 13500 nmols i.p., urine collected 3 hours, listed as 3OMeSL", "value": "4200 nmols and 1355 nmols and 2940 nmols and 1675 nmols and 1778 nmols and 2360 nmols"}, {"measurement": "% 3OMeSL recovered (of injected dose, urine and kidney)", "setting": "[1]; individual rats, 3 hours after i.p. injection, listed as 3OMeSL", "value": "91.5% and 38.8% and 96.4% and 61.2% and 53.0% and 53.3%"}, {"measurement": "total 3OMeSL recovered", "setting": "[1]; individual rats, urine plus kidneys, 3 hours, listed as 3OMeSL", "value": "12355 nmols and 5235 nmols and 13011 nmols and 8257 nmols and 7151 nmols and 7193 nmols"}, {"measurement": "pressure needed to displace the skin", "setting": "STZ-diabetic rats", "value": "3.2+/−1.2 kPA"}, {"measurement": "DYN-12 concentration Kidney", "setting": "[2]; 1 hr", "value": "6.54 µmol/g and 9.19 µmol/g and 8.21 µmol/g"}, {"measurement": "DYN-12 concentration Plasma", "setting": "[2]; 1 hr", "value": "0.335 µmol/mL and 0.269 µmol/mL and 0.296 µmol/mL"}, {"measurement": "DYN-12 concentration Urine", "setting": "[2]; urine collected 1 hr", "value": "41.99 µmol/mL and 17.81 µmol/mL and 15.03 µmol/mL"}, {"measurement": "Ki", "setting": "fructoseamine kinase", "value": "2000 to 3000", "unit": "µM"}]}]}
